Patent US7320785B2, “Compositions and methods for modulation of DARPP-32 phosphorylation” (The Rockefeller University, priority 2001, dated 2008)
Like-named read-outs stand apart in the source and are kept apart here. Marks after values point to notes of the source that are not given here.

How the values were obtained:
WT and DARPP-32 KO mice [1] = assay: Locomotor activity measurements in activity monitors; type: in vivo, mouse
Description: Locomotor activity of WT and DARPP-32 KO mice was measured in activity monitors (43×44×45 cm) equipped with both horizontal and vertical sensors (Opto-Varimex, Columbus Instruments, Columbus, Ohio). Mice were acclimated to the boxes for 1 h, […] before the day of the experiment. The day of the experiment, mice were placed in the boxes for 20 min (habituation period) before drug administration. […] Locomotor activity parameters (distance traveled and stereotypic movements) were quantified by using the AutoTrack System (Columbus Instruments).

DARPP-32 [2] = assay: DARPP-32 phosphorylation in vivo in mice after i.p. injection, immunoblotting; design: species or system mouse; details: for phospho-Thr75 DARPP-32 / phospho-Thr34 DARPP-32: prefrontal cortex
c-fos mRNA = c-fos mRNA expression by in situ hybridization in WT and DARPP-32 KO mice; type: in vivo, mouse; details: 20 min postinjection
Description: Twenty minutes after the injections, the animals were killed by decapitation and their brains frozen at −80° C. Coronal sections were then made and processed for in situ hybridization experiments with a probe against c-fos mRNA. The expression of c-fos mRNA is widely used as a marker for the biochemical activity of neurons. Manipulations of the serotonergic system, by PCA (4 mg/kg) and 5-HTP (50 mg/kg+carbidopa 50 mg/kg), increased c-fos mRNA expression in several brain regions, including prefrontal cortex and striatum in DARPP-32 wild-type mice.

inhibitor-1 = assay: Total inhibitor-1 protein levels after chronic treatment with fluoxetine; type: in vivo, mouse; details: chronic fluoxetine 10 mg/kg i.p.
Description: (§1) In all experiments, hippocampi, prefrontal cortices, and striata were rapidly dissected out and stored at −80° C. until assayed.

DARPP-32 [3] = assay: Total DARPP-32 protein levels after chronic treatment with fluoxetine; type: in vivo, mouse; details: chronic fluoxetine 10 mg/kg i.p., compared with chronic saline
Description: as §1

DARPP-32 [4] = assay: DARPP-32 phosphorylation in mouse brain slices, immunoblotting with phosphorylation state-specific antibodies; details: for EC50 / activity at 100 µM: Mus musculus
WT and DARPP-32 KO mice [5] = assay: Tail-suspension test for antidepressant efficacy; type: in vivo, mouse; details: fluoxetine 5 or 10 mg/kg i.p. 30 min before the trial
inhibitor-1 mRNA = assay: Inhibitor-1 mRNA levels by in situ hybridization after chronic fluoxetine; type: in vivo, mouse; details: hippocampus, prefrontal cortex, striatum; fluoxetine 10 mg/kg i.p. once daily for 19 days
Description: (§2) Brains were rapidly dissected out and frozen at −80° C. Cryostat sections (12-μm) were prepared and hybridized with [α-^35S]UTP-labeled riboprobes prepared by in vitro transcription from cDNA clones corresponding to full-length clones of DARPP-32 or inhibitor-1 as described (21). After hybridization, the sections were exposed to Biomax MR film (Kodak) for 2 14 days and analyzed with a Microcomputer Imaging Device system (M4, Imaging Research, St. Catherine's, ON, Canada).

DARPP-32 mRNA = DARPP-32 mRNA levels by in situ hybridization after chronic fluoxetine; type: in vivo, mouse; details: fluoxetine 10 mg/kg i.p. once daily for 19 days
Description: as §2

[6] = forced-swim test and tail suspension test; cited from earlier work
DARPP-32 [7] = assay: Thr34-DARPP-32 phosphorylation in striatal slices from unilaterally 6-OHDA-lesioned rats; type: cell-based, rat
Description: Further experiments were conducted that provide evidence that activation of a serotonergic intracellular signaling pathway and of DARPP-32 has applicability in the treatment of Parkinson's disease. In these experiment, rats were unilaterally (i.e. in one hemisphere) injected with 6-OHDA (6-hydroxydopamine; a dopaminergic neurotoxin) according to standard methods. The 6-OHDA is selectively taken up by dopaminergic neurons and kills the neurons. Such 6-OHDA-lesioned animals are considered an animal model of Parkinson's disease. The 6-OHDA-lesioned animals were sacrificed, striatal slices were prepared, as described hereinabove, from the non-lesioned (i.e., “normal”) and the 6-OHDA-lesioned (i.e., “dopamine-depleted”) hemispheres, and used for striatal slice experiments according to the methods described hereinabove. 5-HT or saline (control) was administered according to the methods described hereinabove. […] The interpretation of these experiments is that 5-HT activates DARPP-32 phosphorylation via a mechanism that is largely independent of enhanced dopaminergic neurotransmission. Agents that enhance serotonergic neurotransmission, and that are stimulatory, can thus exert anti-Parkinsonian effects independent of dopamine, and can be used in the treatment of Parkinson's disease.

[8] = tested on: GluR1 subunit of the AMPA receptor; assay: Phosphorylation of the GluR1 subunit of the AMPA receptor in slices from WT and DARPP-32 KO mice; type: cell-based, mouse
Description: In order to evaluate the involvement of DARPP-32 in the activity of serotonin, mice that lack DARPP-32 (DARPP-32 knockout (KO) mice) were used. In one set of experiments, striatal slices were prepared from normal mice (DARPP-32 wild-type) and DARPP-32 knockout mice and incubated with serotonin for 5 minutes. Experiments were then carried out to determine the levels of phospho-Ser845 of the GluR1 subunit of the AMPA (AMPA, α-amino-3-hydroxy-5-methyl-4-isoxazolepropionic acid) receptor.

depressed patients = details: several clinical trials; cited from earlier work
[9] = 5-HTP 50 mg/kg + carbidopa 50 mg/kg
[10] = Hippocampus, 5 mg/kg i.p., 15 min
[11] = Hippocampus, 10 mg/kg i.p., 15 min
[12] = Hippocampus, 20 mg/kg i.p., 15 min
[13] = Striatum, 10 mg/kg i.p., 15 min
[14] = Striatum, 20 mg/kg i.p., 15 min
[15] = PCA 4 mg/kg i.p., 15 min, n=5 mice
[16] = striatum, 4 mg/kg i.p., 15 min after injection
[17] = nucleus accumbens slices, serotonin 100 μM, 2 min, n=12
[18] = slices from hippocampus, frontal cortex, striatum, WT mice, serotonin 100 μM, 10 min
[19] = striatal slices, serotonin for 5 minutes

N[C@@H](Cc1c[nH]c2ccc(O)cc12)C(=O)O [5-HTP, 5-hydroxytryptophan]
locomotor activity and stereotypic behavior (WT and DARPP-32 KO mice [1]; DARPP-32 KO mice, 5-HTP 50 mg/kg i.p. 30 min after carbidopa 50 mg/kg): abolished
locomotor activity and stereotypic behavior (WT and DARPP-32 KO mice [1]; WT mice, 5-HTP 50 mg/kg i.p. 30 min after carbidopa 50 mg/kg): robust increase
phospho-Thr75 DARPP-32 (DARPP-32 [2]; 5-HTP 50 mg/kg i.p. after carbidopa, 15 min, n=5): 74±8.0%
phospho-Thr34 DARPP-32 (DARPP-32 [2]; 5-HTP 50 mg/kg i.p. after carbidopa, 15 min, n=5 mice): 144±8.3%
c-fos mRNA Levels in Striatum, DARPP-32 Knockout (c-fos mRNA; [9]): 0.092(0.009)#*
c-fos mRNA Levels in Striatum, DARPP-32 Wild-type (c-fos mRNA; [9]): 0.195(0.017)*

CNCCC(Oc1ccc(C(F)(F)F)cc1)c1ccccc1 (stereo not shown) [Fluoxetine]
locomotion (WT and DARPP-32 KO mice [1]; fluoxetine at the doses examined (5 or 10 mg/kg)): not significantly affected
total inhibitor-1 protein (inhibitor-1; hippocampus): 98%
total inhibitor-1 protein (inhibitor-1; prefrontal cortex): 102%
total inhibitor-1 protein (inhibitor-1; striatum): 97%
total DARPP-32 protein (DARPP-32 [3]; hippocampus): 121%
total DARPP-32 protein (DARPP-32 [3]; prefrontal cortex): 123%
total DARPP-32 protein (DARPP-32 [3]; striatum): 102%
Percent Phospho-Thr34 (DARPP-32 [2]; Cortex, 5 mg/kg i.p., 15 min): 144(7.4)* Percent
Percent Phospho-Thr75 (DARPP-32 [2]; Cortex, 5 mg/kg i.p., 15 min): 86(7.0)* Percent
Percent Phospho-Thr34 (DARPP-32 [2]; Cortex, 10 mg/kg i.p., 15 min): 140(4.7)* Percent
Percent Phospho-Thr75 (DARPP-32 [2]; Cortex, 10 mg/kg i.p., 15 min): 85(4.2)* Percent
Percent Phospho-Thr75 (DARPP-32 [2]; Cortex, 20 mg/kg i.p., 15 min): 82(7.3)* Percent
Percent Phospho-Thr34 (DARPP-32 [2]; [10]): 150(3.8)* Percent
Percent Phospho-Thr75 (DARPP-32 [2]; [10]): 84(6.4)* Percent
Percent Phospho-Thr34 (DARPP-32 [2]; [11]): 142(6.2)* Percent
Percent Phospho-Thr75 (DARPP-32 [2]; [11]): 87(3.0)* Percent
Percent Phospho-Thr34 (DARPP-32 [2]; [12]): 141(11.6)* Percent
Percent Phospho-Thr75 (DARPP-32 [2]; [12]): 88(3.0)* Percent
Percent Phospho-Ser137 (DARPP-32 [2]; Striatum, 5 mg/kg i.p., 15 min): 120(8.7) Percent
Percent Phospho-Thr34 (DARPP-32 [2]; Striatum, 5 mg/kg i.p., 15 min): 123(5.0)* Percent
Percent Phospho-Thr75 (DARPP-32 [2]; Striatum, 5 mg/kg i.p., 15 min): 95(3.1) Percent
Percent Phospho-Ser102 (DARPP-32 [2]; [13]): 108(7.5) Percent
Percent Phospho-Thr34 (DARPP-32 [2]; [13]): 155.2(12.9)* Percent
Percent Phospho-Thr75 (DARPP-32 [2]; [13]): 84.6(8.9)* Percent
Percent Phospho-Thr34 (DARPP-32 [2]; [14]): 141(7.6)* Percent
Percent Phospho-Thr75 (DARPP-32 [2]; [14]): 92(2.1)* Percent
fraction of DARPP-32 phosphorylated at Thr-34, Thr-75, or Ser-137 (DARPP-32 [2]; chronic fluoxetine 10 mg/kg 19 days, challenged with saline, versus chronic saline/saline, normalized to total DARPP-32): no differences
ability of a challenge to increase phosphorylation at Ser-137 (DARPP-32 [2]; striatum, chronic fluoxetine 10 mg/kg 19 days, challenge 10 mg/kg): abolished
effect of fluoxetine alone on DARPP-32 phosphorylation (DARPP-32 [4]; slices from hippocampus, prefrontal cortex, striatum, fluoxetine 10 M printed): no effect
effect on immobility in the tail-suspension test (WT and DARPP-32 KO mice [5]; DARPP-32 KO mice): strongly attenuated
immobility in the tail-suspension test (WT and DARPP-32 KO mice [5]; WT mice, 5 min trial): decreased immobility
inhibitor-1 mRNA expression (inhibitor-1 mRNA): no effects
DARPP-32 mRNA expression (DARPP-32 mRNA; hippocampus and frontal cortex): increased
DARPP-32 mRNA expression (DARPP-32 mRNA; striatum): not in striatum

CC(CNS(=O)(=O)C(C)C)c1ccc(-c2ccsc2)cc1 (stereo not shown) [LY392098]
antidepressant-like actions [6]: robust antidepressant-like actions

CC(CNS(=O)(=O)C(C)C)c1ccc(-c2ccc(C#N)cc2)cc1 (stereo not shown) [LY404187]
antidepressant-like actions [6]: robust antidepressant-like actions

CC(N)Cc1ccc(Cl)cc1 (stereo not shown) [PCA, para-chloroamphetamine]
locomotor activity and stereotypic behavior (WT and DARPP-32 KO mice [1]; DARPP-32 KO mice, PCA 4 mg/kg i.p.): abolished
locomotor activity and stereotypic behavior (WT and DARPP-32 KO mice [1]; WT mice, PCA 4 mg/kg i.p., 50 min): robust increase
phospho-Thr34 DARPP-32 (DARPP-32 [2]; [15]): 147±4.8%
phospho-Thr75 DARPP-32 (DARPP-32 [2]; [15]): 79±3.8%
Percent Phospho-Ser137 (DARPP-32 [2]; [16]): 128(7.1)* Percent
Percent Phospho-Thr34 (DARPP-32 [2]; [16]): 171(9.1)* Percent
Percent Phospho-Thr75 (DARPP-32 [2]; [16]): 80.1(3.4)* Percent
c-fos mRNA Levels in Striatum, DARPP-32 Knockout (c-fos mRNA; PCA 4 mg/kg i.p.): 0.084(0.010)#*
c-fos mRNA Levels in Striatum, DARPP-32 Wild-type (c-fos mRNA; PCA 4 mg/kg i.p.): 0.181(0.021)*

NCCc1c[nH]c2ccc(O)cc12 [Serotonin]
EC50 (DARPP-32 [4]; 2 min, read-out: EC50 for effect on DARPP-32 phosphorylation at Ser137): 37.6 µM
EC50 (DARPP-32 [4]; 2 min, read-out: EC50 for effect on DARPP-32 phosphorylation at Thr34): 13.5 µM
activity at 100 µM (DARPP-32 [4]; 2 min, read-out: Percent Phospho-Ser137): 141%
activity at 100 µM (DARPP-32 [4]; 2 min, read-out: Percent Phospho-Thr34): 342%
EC50 (DARPP-32 [4]; 10 min, read-out: EC50 for effect on DARPP-32 phosphorylation at Thr75): 29.6 µM
activity at 100 µM (DARPP-32 [4]; 10 min, read-out: Percent Phospho-Thr75): 76%
phosphorylation at Ser137 (DARPP-32 [4]; [17]): 143±7%
phosphorylation at Thr34 (DARPP-32 [4]; [17]): 307±25%
phosphorylation at Thr75 (DARPP-32 [4]; nucleus accumbens slices, serotonin, 10 min, n=12): 75±6%
phospho-Thr34 DARPP-32 (DARPP-32 [4]; prefrontal cortex slices, 2 min of incubation, n=6): 185±15%
phospho-Thr75 DARPP-32 (DARPP-32 [4]; prefrontal cortex slices, 10 min of incubation, n=6): 85±3%
Percent Phospho-Thr34 (DARPP-32 [7]; 6-OHDA lesioned hemisphere): 369(67.2)* Percent
Percent Phospho-Thr34 (DARPP-32 [7]; Intact hemisphere): 306(50.7) Percent
increased phosphorylation at Ser-845 GluR1, DARPP-32 KO versus WT ([8]; slices from DARPP-32 KO mice, serotonin 100 μM): significantly reduced
phosphorylation at Ser-831 GluR1 [8, 18]: increased
phosphorylation at Ser-845 GluR1 [8, 18]: increased
Ser845-GluR1 Levels, DARPP-32 Knockout [8, 19]: 111(14.9)# percentage of control
Ser845-GluR1 Levels, DARPP-32 Wild-type [8, 19]: 199(22.7)* percentage of control

COc1ccc(C2CNC(=O)C2)cc1OC1CCCC1 (stereo not shown) [rolipram]
anti-depressant efficacy (depressed patients): has anti-depressant efficacy
